Measured values as given in patent US20120321896A1, “RASAGILINE MESYLATE HAVING LARGE PARTICLE SIZE AND A PROCESS FOR PREPARATION THEREOF” (priority 2010, published 2012).
Counter-ions that a name gives are not always drawn.

Conditions: volume distribution; average of three measurements; recrystallised from isopropyl alcohol, gradual cooling in around 15 hours without stirring, no milling
From the text: Measurement and characterization of particle size distributions is known in the art. It is possible to compare samples of particulate rasagiline mesylate on the basis of individual points on a cumulative particle size distribution curve. The measurements are represented as d(0.X)-Y (where X and Y are Arabic numerals), each “d” describing an individual point on a cumulative PSD curve. The number “X” represents the percentage (number, volume, or weight) of particles in the population having a nominal size up to and including “Y”. Thus, D90 or d(0.9) of greater than 255 μm is a characteristic of a PSD in which 90% (number, volume, or weight) of the particles in a population have a nominal size of about 255 μm or more (at least some particles having a nominal dimension of 255 μm) and so forth. When PSD is determined by the well-know laser-diffraction method described herein, the D90 measurement depicts a volume average.
Particle Size Distribution (PSD) is determined by laser diffraction in Malvern master Sizer 2000 equipment or its equivalent:
Spread sufficient powder in the dry powder holder of sampler holding unit and close it by the sliding cover. Operate the instrument for particle size analysis.
Report the average of three measurements.

| SMILES | Particle size data (D90) [μm] |
| --- | --- |
| C#CCN[C@@H]1CCc2ccccc21 [Example-1, Rasagiline mesylate] | 292.2 |
| C#CCN[C@@H]1CCc2ccccc21 [Example-2, Rasagiline mesylate] | 337.1 |
